Source: EP4772514A1, “MACROCYCLIC COMPOUNDS, PREPARATION METHOD THEREFOR, AND USE THEREOF” (Genfleet Therapeutics (Shanghai) Inc., priority 2023, dated 2025)
Read-outs that look alike come from different tables or passages of the source.

What was measured:
NCI-H441 cells = assay: 3D cell proliferation assay (CellTiter Glo-3D) in NCI-H441 cells; type: cell-based; details: NCI-H441, human lung cancer cell strain, KRAS G12V mutation, 3D culture, 2% FBS, 5 days, read-out: H441 AP IC50
Text: MIA PaCa-2 cells were purchased from ATCC, Cat. No. CRL-1420; AsPC-1 cells were purchased from ATCC, Cat. No. CRL-1682; NCI-H441 cells were purchased from ATCC, Cat. No. HTB-174; NCI-H1975 cells were purchased from ATCC, Cat. No. CRL-5908; DMEM medium was purchased from Gibco, Cat. No. 11995-065; RPMI-1640 medium was purchased from Gibco, Cat. No. 11875-093; FBS was purchased from Gibco, Cat. No. 10099-141C; penicillin/streptomycin double-antibiotic solution (PS) was purchased from Gibco, Cat. No. 15140-122; Horse serum was purchased from Gibco, Cat. No. 16050130; trypsin (containing EDTA) was purchased from Gibco, Cat. No. 25200-072; DMSO was purchased from VWRAMRESCO, Cat. No. 0231-500ML; 384-well cell culture plates were purchased from Corning, Cat. No. 3830; white-bottomed, opaque 384-well assay plates were purchased from Corning, Cat. No. 3570; CellTiter Glo-3D kit was purchased from Promega, Cat. No. G9683; cell counter was purchased from CHEMOMETEC, model: NC-200; microplate reader was purchased from PerkinElmer, model: EnVision.
MIA PaCa-2, a human pancreatic cancer cell strain endogenously containing a KRAS^G12Cmutation, was cultured in a complete medium containing DMEM + 10% FBS + 2.5% Horse serum + 1% PS. AsPC-1, a human pancreatic cancer cell strain endogenously containing a KRAS^G12D mutation, was cultured in a complete medium containing RPMI-1640 + 10% FBS + 1% PS. NCI-H441 cells, a human lung cancer cell strain endogenously containing a KRAS^G12V mutation, were cultured in a complete medium containing RPMI-1640 + 10% FBS + 1% PS. NCI-H1975, a KRAS wild-type human lung cancer cell strain whose cell proliferation […], was cultured in a complete medium containing RPMI-1640 + 10% FBS + 1% PS.
The cells were digested with trypsin (containing EDTA), collected in their respective low-serum complete media containing 2% FBS (for MIA Paca-2 cell culture: DMEM + 2% FBS + 0.5% Horse serum + 1% PS), and counted. After the cell density was adjusted as required, MIA PaCa-2 cells (200 cells/well), AsPC-1 cells (800 cells/well), NCI-H441 cells (800 cells/well), or NCI-H1975 cells (400 cells/well) were seeded into a 384-well cell culture plate, with the volume of the medium in each well being 45 µL. The cell culture plate was incubated in an incubator at 37 °C with 5% CO2 overnight. A series of 3.16-fold gradient dilutions of a 1000× compound stock solution were prepared with DMSO, and then diluted 100-fold with the complete medium containing 2% FBS described above to give 10× compound stock solutions. On the day after cell seeding, 5 µL of the 10× compound stock solution was added to each cell culture well. As a result, the final concentration of the compound in the cell culture well became 1×, and the DMSO content in the well was 0.1%. In addition to the compound-treated wells described above, cell-containing DMSO control wells (with 5 µL of the complete medium containing 1% DMSO added to each well) and cell-free medium control wells (containing 50 µL of the complete medium with 2% FBS) were also set. The culture plate was incubated in an incubator at 37 °C with 5% CO2 for another 5 days, and then 30 µL of CellTiter-Glo working solution was added to each well. The mixture was well mixed, incubated for 30 min, left to stand at room temperature for 30 min, and then transferred to a white-bottomed, opaque 384-well assay plate at 40 µL/well. The chemiluminescence values (RLU) were measured using a microplate reader, and the cell proliferation inhibition rate for each well was calculated: IR(%) = (RLUDMSO - RLUcompound)/(RLUDMSO - RLUblank) × 100%, where RLUDMSO is the average RLU signal value from the DMSO control well samples, RLUblank is the average RLU signal value from the medium control well samples, and RLUcompound is the RLU signal value from the compound-treated well samples. […]

p-ERK = assay: Cell p-ERK assay (HTRF, Advance ERK phospho-T202/Y204 kit) in NCI-H441 cells; type: cell-based; details: NCI-H441, human non-small cell lung cancer cell strain, KRAS G12V mutation, 3 h compound incubation
Experimental: AsPC-1 cells were purchased from ATCC, Cat. No. CRL-1682; NCI-H441 cells were purchased from ATCC, Cat. No. HTB-174; RPMI-1640 medium was purchased from Gibco, Cat. No. 11875-093; FBS was purchased from Gibco, Cat. No. 10099-141C; penicillin/streptomycin double-antibiotic solution (PS) was purchased from Gibco, Cat. No. 15140-122; trypsin (containing EDTA) was purchased from Gibco, Cat. No. 25200-072; DMSO was purchased from VWRAMRESCO, Cat. No. 0231-500ML; 96-well cell culture plates were purchased from Corning, Cat. No. 3599; white-bottomed, opaque 96-well plates were purchased from Cisbio, Cat. No. 66PL96025; Advance ERK phospho-T202/Y204 kit was purchased from Cisbio, Cat. No. 64AERPEH; cell counter was purchased from CHEMOMETEC, model: NC-200; microplate reader was purchased from PerkinElmer, model: EnVision.
AsPC-1, a human pancreatic cancer cell strain endogenously containing a KRAS^G12D mutation, was cultured in a complete medium containing RPMI-1640 + 10% FBS + 1% PS. NCI-H441, a human non-small cell lung cancer cell strain endogenously containing a KRAS^G12V mutation, was cultured in a complete medium containing RPMI-1640 + 10% FBS + 1% PS.
The cells were digested with trypsin (containing EDTA), collected in their corresponding complete media, and counted. The density of the cell suspensions was adjusted with their corresponding complete media, and AsPC-1 cells (10000 cells/well) or NCI-H441 cells (20000 cells/well) were seeded into a 96-well cell culture plate, with the volume of the medium in each well being 80 µL. The cell culture plate was incubated in an incubator at 37 °C with 5% CO2 overnight. A series of 3.16-fold gradient dilutions of a 1000× compound stock solution were prepared with DMSO, and then diluted 200-fold with the complete medium described above to give 5× compound stock solutions. On the day after cell seeding, 20 µL of the 5× compound stock solution was added to each cell culture well. As a result, the final concentration of the compound in the cell culture well became 1×, and the DMSO content in the well was 0.1%. In addition to the compound-treated wells described above, cell-containing DMSO control wells were also set. A complete medium containing 0.5% DMSO was added at 20 µL/well. After the mixture was well mixed, the culture plate was incubated in the incubator at 37 °C with 5% CO2 for another 3 h. The medium was then removed from the culture wells, and 50 µL of cell lysis buffer (from Advance ERK phospho-T202/Y204 kit) was added to each well. The mixture was well mixed, incubated for 30 min, and then transferred to a white-bottomed, opaque 96-well assay plate at 16 µL/well, and separately, 16 µL of cell lysis buffer was added to additional wells (serving as blank wells) in the assay plate. After the transfer was completed, 4 µL of p-ERK HTRF antibody mixture (from Advance ERK phospho-T202/Y204 kit) was added to each well of the assay plate, followed by a 4-hour incubation. The HTRF signal values (RLU) were then measured using a microplate reader, and the inhibition rate of the compound against p-ERK levels was calculated as follows: IR(%) = (RLUDMSO - RLUcompound)/(RLUDMSO - RLUblank) × 100%, where RLUDMSO is the average HTRF signal value from the DMSO control well samples, RLU is the average HTRF signal value from the blank well samples, and RLUcompound is the HTRF signal value from the compound-treated well samples. Using an XLfit software, the IR(%) values were plotted against the logarithm of the compound concentrations, and the dose-response curves were fitted using the four-parameter method to calculate the IC50 values.

Row | Molecule | IC50 (NCI-H441 cells) [nM] | IC50 (p-ERK) [nM] | IC50 (NCI-H441 cells; Homo sapiens, NCI-H441, 120 h) [nM] | IC50 (p-ERK; Homo sapiens, NCI-H441, 3 h) [nM]
1 | CCn1nc2c(c1-c1cc(C#CCN3CCS(=O)(=O)CC3)cnc1C(C)OC)CC(C)(C)COC(=O)C1CCCN(N1)C(=O)C(NC(=O)C(C)Cc1ccnc(NC)c1)Cc1nc(cs1)C=C2 (single isomer, unassigned) [Compound Z52-2] | 25 | 32 | – | –
2 | CCn1nc2c(c1-c1cc(C#CCN3CCS(=O)(=O)CC3)cnc1[C@H](C)OC)CC(C)(C)COC(=O)[C@@H]1CCCN(N1)C(=O)[C@@H](NC(=O)[C@@H](NC)C(C)C)Cc1nc(cs1)/C=C/2 (atropisomer, axis not shown; (Ra)) [Compound Z56, (2S)-N-((4^2Z,8^3S,2E,6S)-1^5-(Ra)-(5-(3-(1,1-dioxidothiomorpholino)prop-1-yn-1-yl)-2-((S)-1-methoxyethyl)pyridin-3-yl)-1^1-ethyl-12,12-dimethyl-7,9-dioxo-8^1,8^2,8^3,8^4,8^5,8^6-hexahydro-1^1H-10-oxa-4(4,2)-thiazola-8(1,3)-pyridazina-1(3,4)-pyrrolacyclotridecaphan-2-en-6-yl)-3-methyl-2-(methylamino)butanamide] | – | – | 196 | 126
3 | (2R)-N-((4^2Z,8^3S,2E,6S)-(Ra)-1^5-(5-(3-(1,1-dioxothiomorpholino)prop-1-yn-1-yl)-2-((S)-1-methoxyethyl)pyridin-3-yl)-1^1-ethyl-12,12-dimethyl-7,9-dioxo-8^1,8^2,8^3,8^4,8^5,8^6-hexahydro-1^1H-10-oxo-4(4,2)-thiazola-8(1,3)-pyridazina-1(3,4)-pyrrolacyclotridecaphan-2-en-6-yl)-3-methyl-2-(N-methyl-2-phenylacetamido)butanamide [Compound Z47-2] | 37.6 | 17.3 | – | –
4 | CCn1nc2c(c1-c1cc(C#CCN3CCS(=O)(=O)CC3)cnc1C(C)OC)CC(C)(C)COC(=O)C1CCCN(N1)C(=O)C(NC(=O)C(C)Cc1ccnc(NC)c1)Cc1nc(cs1)C=C2 (single isomer, unassigned) [Compound Z52-1] | 76.5 | – | – | 52.3
5 | CCn1c(OC)c2c(c1-c1cc(C#CCN3CCS(=O)(=O)CC3)cnc1[C@H](C)OC)CC(C)(C)COC(=O)[C@@H]1CCCN(N1)C(=O)[C@@H](NC(=O)[C@H]1[C@H](C)[C@@H]1C)Cc1nc(cs1)/C=C/2 (atropisomer, axis not shown; (Ra)) [Compound Z191, (1r,2R,3S)-N-((4^2Z,8^3S,2E,6S)-(Ra)-1^5-(5-(3-(1,1-dioxidothiomorpholino)prop-1-yn-1-yl)-2-((S)-1-methoxyethyl)pyridin-3-yl)-1^1-ethyl-1^2-methoxy-12,12-dimethyl-7,9-dioxo-8^1,8^2,8^3,8^4,8^5,8^6-hexahydro-1^1H-10-oxa-4(4,2)-thiazola-8(1,3)-pyridazina-1(3,4)-pyrrolacyclotridecaphan-2-en-6-yl)-2,3-dimethylcyclopropane-1-carboxamide] | – | – | 7.19 | 3.92
6 | CCn1nc2c(c1-c1cc(C#CCN3CCS(=O)(=O)CC3)cnc1[C@H](C)OC)CC(C)(C)COC(=O)[C@@H]1CCCN(N1)C(=O)[C@@H](NC(=O)[C@H](C(C)C)N(C)C(=O)COc1ccccc1)Cc1nc(cs1)/C=C/2 (atropisomer, axis not shown; (Ra)) [Compound Z57, (2S)-N-((4^2Z,8^3S,2E,6S)-(Ra)-1^5-(5-(3-(1,1-dioxidothiomorpholino)prop-1-yn-1-yl)-2-((S)-1-methoxyethyl)pyridin-3-yl)-1^1-ethyl-12,12-dimethyl-7,9-dioxo-8^1,8^2,8^1,8^4,8^1,8^6-hexahydro-1^1H-10-oxa-4(4,2)-thiazola-8(1,3)-pyridazina-1(3,4)-pyrazolocyclotridec-2-en-6-yl)-3-methyl-2-(N-methyl-2-phenoxyacetamido)butanamide] | – | – | 245 | 88
7 | CCn1nc2c(c1-c1cc(C#CCN3CCS(=O)(=O)CC3)cnc1[C@H](C)OC)CC(C)(C)COC(=O)[C@@H]1CCCN(N1)C(=O)[C@@H](NC(=O)[C@H](C(C)C)N(C)c1ccc3ncn(C)c3c1)Cc1nc(cs1)/C=C/2 (atropisomer, axis not shown; (Ra)) [Compound Z115, (2S)-N-((4^2Z,8^3S,2E,6S)-1^5-(Ra)-(5-(3-(1,1-dioxidothiomorpholino)prop-1-yn-1-yl)-2-((S)-1-methoxyethyl)pyridin-3-yl)-1^1-ethyl-12,12-dimethyl-7,9-dioxo-8^1,8^2,8^3,8^4,8^5,8^6-hexahydro-1^1H-10-oxa-4(4,2)-thiazola-8(1,3)-pyridazina-1(3,4)-pyrazolocyclotridec-2-en-6-yl)-3-methyl-2-(methyl(1-methyl-1H-benzo[d]imidazol-6-yl)amino)butanamide] | – | – | 18.9 | 3.97
